Key:
[1] = biological target: T1, Kappa-type opioid receptor (Homo sapiens, UniProt P41145); assay: GPCRScan assay: inhibition of KOR; set-up: radioligand conc. used [nm] 0.6 – 1.2, parental cells stable HEK
[2] = biological target: 5-hydroxytryptamine receptor 1B (Homo sapiens) (UniProt P28222); assay: 5HT1B(H) Eurofins SafetyScreen44 (BI); conditions: filed as antagonist, Compound concentration 10.0 uM
[3] = biological target: Prostaglandin G/H synthase 2 (Homo sapiens) (UniProt P35354); assay: COX-2 Eurofins SafetyScreen44 (BI); conditions: Compound concentration 10.0 uM
[4] = biological target: Prothrombin (Homo sapiens) (UniProt P00734); assay: THROMBIN Eurofins SafetyScreen44 (BI); conditions: Compound concentration 10.0 uM
[5] = biological target: 5-hydroxytryptamine receptor 1A (Homo sapiens) (UniProt P08908); assay: 5HT1A/H Eurofins SafetyScreen44 (BI); conditions: Compound concentration 10.0 uM
Chain of 5-hydroxytryptamine receptor 1A (Homo sapiens) (P08908 whole entry): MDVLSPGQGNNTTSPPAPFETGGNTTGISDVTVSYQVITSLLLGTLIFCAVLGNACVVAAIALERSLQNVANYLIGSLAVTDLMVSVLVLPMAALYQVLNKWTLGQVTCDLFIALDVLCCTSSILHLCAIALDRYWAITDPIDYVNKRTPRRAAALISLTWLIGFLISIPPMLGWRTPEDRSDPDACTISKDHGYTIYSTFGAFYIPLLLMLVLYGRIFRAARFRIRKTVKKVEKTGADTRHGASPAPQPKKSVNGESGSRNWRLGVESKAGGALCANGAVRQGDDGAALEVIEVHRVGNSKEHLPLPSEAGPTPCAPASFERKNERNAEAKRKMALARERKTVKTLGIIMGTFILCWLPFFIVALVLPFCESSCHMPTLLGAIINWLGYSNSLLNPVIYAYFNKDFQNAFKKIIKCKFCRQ

[6] = biological target: 5-hydroxytryptamine receptor 2A (Homo sapiens) (UniProt P28223); assay: 5HT2AH_AGON Eurofins SafetyScreen44 (BI); conditions: filed as agonist, Compound concentration 10.0 uM
[7] = biological target: Angiotensin-converting enzyme (Homo sapiens) (UniProt P12821); assay: ACE(HU_AMTCH400) Eurofins SafetyScreen44 (BI); conditions: Compound concentration 10.0 uM
[8] = biological target: Alpha-2A adrenergic receptor (Homo sapiens) (UniProt P08913); assay: ALPHA2A/HU Eurofins SafetyScreen44 (BI); conditions: Compound concentration 10.0 uM
[9] = biological target: Beta-secretase 1 (Homo sapiens) (UniProt P56817); assay: BACE-1 Eurofins SafetyScreen44 (BI); conditions: Compound concentration 10.0 uM
[10] = biological target: Beta-2 adrenergic receptor (Homo sapiens) (UniProt P07550); assay: BETA2/HUM Eurofins SafetyScreen44 (BI); conditions: filed as antagonist, Compound concentration 10.0 uM
[11] = biological target: L-type calcium channel (dihydropyridine site), Cav1.2 alpha-1C (Rattus norvegicus, UniProt P22002); assay: CA+/DHPSI/R Eurofins SafetyScreen44 (BI); set-up: mode of action inhibitor; conditions: rat brain, probe [3H](+)PN200-110, compound concentration 10 uM, read-out: % Ctrl
Chain of L-type calcium channel (dihydropyridine site), Cav1.2 alpha-1C (P22002 whole entry): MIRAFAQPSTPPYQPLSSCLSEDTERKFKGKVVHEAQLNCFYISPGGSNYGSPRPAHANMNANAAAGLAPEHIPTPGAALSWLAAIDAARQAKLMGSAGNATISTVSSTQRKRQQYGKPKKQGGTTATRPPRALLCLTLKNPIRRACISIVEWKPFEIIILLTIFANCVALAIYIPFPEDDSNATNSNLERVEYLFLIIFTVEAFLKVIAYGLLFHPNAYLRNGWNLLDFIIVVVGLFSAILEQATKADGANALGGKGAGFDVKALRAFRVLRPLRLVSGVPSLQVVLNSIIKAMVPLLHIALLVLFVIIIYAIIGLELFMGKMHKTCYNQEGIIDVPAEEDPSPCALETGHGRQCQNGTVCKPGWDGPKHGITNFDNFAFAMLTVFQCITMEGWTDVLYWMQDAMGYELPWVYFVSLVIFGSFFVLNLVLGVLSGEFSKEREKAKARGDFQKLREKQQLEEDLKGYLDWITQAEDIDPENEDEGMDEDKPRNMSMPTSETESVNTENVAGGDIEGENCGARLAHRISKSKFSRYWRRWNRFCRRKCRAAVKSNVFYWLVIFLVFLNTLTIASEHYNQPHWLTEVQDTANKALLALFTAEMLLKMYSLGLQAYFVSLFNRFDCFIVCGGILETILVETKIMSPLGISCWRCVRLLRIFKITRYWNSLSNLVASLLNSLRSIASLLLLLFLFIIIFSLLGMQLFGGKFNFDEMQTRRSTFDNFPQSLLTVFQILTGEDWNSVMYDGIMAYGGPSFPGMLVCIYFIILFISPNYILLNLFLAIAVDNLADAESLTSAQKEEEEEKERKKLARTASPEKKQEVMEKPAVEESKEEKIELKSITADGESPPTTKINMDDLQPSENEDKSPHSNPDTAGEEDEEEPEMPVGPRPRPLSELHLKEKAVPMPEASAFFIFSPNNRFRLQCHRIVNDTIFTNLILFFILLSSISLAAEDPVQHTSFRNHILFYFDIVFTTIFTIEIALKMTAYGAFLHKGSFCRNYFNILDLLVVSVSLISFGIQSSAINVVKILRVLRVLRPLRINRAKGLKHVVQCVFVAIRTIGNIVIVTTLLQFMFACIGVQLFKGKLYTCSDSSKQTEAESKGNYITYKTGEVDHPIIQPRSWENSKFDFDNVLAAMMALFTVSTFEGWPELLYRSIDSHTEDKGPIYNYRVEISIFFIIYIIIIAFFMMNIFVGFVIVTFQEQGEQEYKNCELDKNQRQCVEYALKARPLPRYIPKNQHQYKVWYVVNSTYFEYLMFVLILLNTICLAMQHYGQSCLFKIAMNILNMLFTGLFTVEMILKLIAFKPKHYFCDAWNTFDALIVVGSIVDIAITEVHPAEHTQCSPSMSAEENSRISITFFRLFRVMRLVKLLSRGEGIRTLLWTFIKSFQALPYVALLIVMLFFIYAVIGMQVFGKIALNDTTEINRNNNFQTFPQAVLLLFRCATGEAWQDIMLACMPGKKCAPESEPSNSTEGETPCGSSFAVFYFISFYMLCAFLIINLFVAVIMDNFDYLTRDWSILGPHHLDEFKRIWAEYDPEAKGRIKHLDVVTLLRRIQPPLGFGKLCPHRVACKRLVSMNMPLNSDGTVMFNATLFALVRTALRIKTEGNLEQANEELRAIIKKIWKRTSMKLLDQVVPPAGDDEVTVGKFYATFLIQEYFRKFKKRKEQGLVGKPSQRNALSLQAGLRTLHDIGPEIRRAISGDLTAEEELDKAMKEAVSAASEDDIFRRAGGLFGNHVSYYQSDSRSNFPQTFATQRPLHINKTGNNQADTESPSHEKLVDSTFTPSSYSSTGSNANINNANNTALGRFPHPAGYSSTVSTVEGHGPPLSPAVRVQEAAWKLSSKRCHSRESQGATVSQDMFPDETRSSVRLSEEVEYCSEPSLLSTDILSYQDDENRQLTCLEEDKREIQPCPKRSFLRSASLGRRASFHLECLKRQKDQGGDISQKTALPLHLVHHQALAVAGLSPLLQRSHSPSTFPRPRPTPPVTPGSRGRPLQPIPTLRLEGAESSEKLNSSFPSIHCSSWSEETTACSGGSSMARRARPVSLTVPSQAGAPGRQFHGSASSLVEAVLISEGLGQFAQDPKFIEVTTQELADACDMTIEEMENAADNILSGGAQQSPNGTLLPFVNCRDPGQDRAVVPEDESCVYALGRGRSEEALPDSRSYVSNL

[12] = biological target: Caspase-3 (Homo sapiens) (UniProt P42574); assay: CASPASE-3 Eurofins SafetyScreen44 (BI); conditions: Compound concentration 10.0 uM
[13] = biological target: Procathepsin L (Homo sapiens) (UniProt P07711); assay: CATHEPSIN-L Eurofins SafetyScreen44 (BI); conditions: Compound concentration 10.0 uM
[14] = biological target: Cathepsin D (Homo sapiens) (UniProt P07339); assay: CATHEPSIND Eurofins SafetyScreen44 (BI); conditions: Compound concentration 10.0 uM
[15] = biological target: Dipeptidyl peptidase 1 (Homo sapiens) (UniProt P53634); assay: CATHEPSIN_C_CE Eurofins SafetyScreen44 (BI); conditions: Compound concentration 10.0 uM
[16] = biological target: Cannabinoid receptor 2 (Homo sapiens) (UniProt P34972); assay: CB2/PERIPH/H Eurofins SafetyScreen44 (BI); conditions: Compound concentration 10.0 uM
[17] = biological target: Cholecystokinin receptor type A (Homo sapiens) (UniProt P32238); assay: CCKA/H Eurofins SafetyScreen44 (BI); conditions: Compound concentration 10.0 uM
[18] = biological target: Delta-type opioid receptor (Homo sapiens) (UniProt P41143); assay: DELTA2/H Eurofins SafetyScreen44 (BI); conditions: Compound concentration 10.0 uM
Chain of Delta-type opioid receptor (Homo sapiens) (P41143 whole entry): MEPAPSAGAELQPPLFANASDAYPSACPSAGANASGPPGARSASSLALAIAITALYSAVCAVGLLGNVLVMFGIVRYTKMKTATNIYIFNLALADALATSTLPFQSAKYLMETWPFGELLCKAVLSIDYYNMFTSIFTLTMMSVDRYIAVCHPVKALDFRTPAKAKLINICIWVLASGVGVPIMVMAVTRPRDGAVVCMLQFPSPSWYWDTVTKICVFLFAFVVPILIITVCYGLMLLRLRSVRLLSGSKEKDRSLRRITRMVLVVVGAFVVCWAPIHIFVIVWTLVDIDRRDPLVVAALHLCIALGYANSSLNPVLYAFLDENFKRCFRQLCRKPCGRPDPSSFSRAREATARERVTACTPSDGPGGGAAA

[19] = biological target: Muscarinic acetylcholine receptor M1 (Homo sapiens) (UniProt P11229); assay: M1/H Eurofins SafetyScreen44 (BI); conditions: Compound concentration 10.0 uM
[20] = biological target: MAO-A (amine oxidase [flavin-containing] A) (Rattus norvegicus, UniProt P21396); assay: MAO-A_ANTAG Eurofins SafetyScreen44 (BI); set-up: mode of action antagonist; scale not given: the % may be the effect or the level left; conditions: compound concentration 10 uM, read-out: % Ctrl
[21] = biological target: Collagenase 3 (Homo sapiens) (UniProt P45452); assay: MMP-13 (H) Eurofins SafetyScreen44 (BI); conditions: Compound concentration 10.0 uM
[22] = biological target: 72 kDa type IV collagenase (Homo sapiens) (UniProt P08253); assay: MMP-2 (H) Eurofins SafetyScreen44 (BI); conditions: Compound concentration 10.0 uM
Chain of 72 kDa type IV collagenase (Homo sapiens) (P08253 110-660 limits assumed): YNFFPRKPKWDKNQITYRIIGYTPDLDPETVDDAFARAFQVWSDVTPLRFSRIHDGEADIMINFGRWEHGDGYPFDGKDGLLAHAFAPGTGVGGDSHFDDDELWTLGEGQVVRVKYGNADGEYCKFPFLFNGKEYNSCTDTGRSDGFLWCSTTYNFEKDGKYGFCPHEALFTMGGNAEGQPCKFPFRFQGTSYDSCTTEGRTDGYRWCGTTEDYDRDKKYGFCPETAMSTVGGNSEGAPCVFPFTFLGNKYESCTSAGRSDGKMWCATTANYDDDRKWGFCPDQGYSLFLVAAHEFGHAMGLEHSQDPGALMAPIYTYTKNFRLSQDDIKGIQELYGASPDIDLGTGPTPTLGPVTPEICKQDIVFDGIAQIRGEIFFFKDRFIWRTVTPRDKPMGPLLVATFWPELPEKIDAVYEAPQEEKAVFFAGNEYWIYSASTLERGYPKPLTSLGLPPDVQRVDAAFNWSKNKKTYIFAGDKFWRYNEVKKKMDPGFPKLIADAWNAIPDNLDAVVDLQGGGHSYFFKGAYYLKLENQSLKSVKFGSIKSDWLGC

[23] = biological target: Matrix metalloproteinase-14 (Homo sapiens) (UniProt P50281); assay: MT1-MMP(H)(MMP-14) Eurofins SafetyScreen44 (BI); conditions: Compound concentration 10.0 uM
[24] = biological target: Sodium-dependent noradrenaline transporter (Homo sapiens) (UniProt P23975); assay: NEUP/H Eurofins SafetyScreen44 (BI); conditions: Compound concentration 10.0 uM
[25] = biological target: Neuronal acetylcholine receptor; alpha4/beta2 (Homo sapiens) (UniProt P17787+P43681); assay: N_NEURO_A4B2 Eurofins SafetyScreen44 (BI); format: protein-complex assay; conditions: filed as agonist, Compound concentration 10.0 uM
[26] = biological target: Proteinase-activated receptor 1 (Homo sapiens) (UniProt P25116); assay: PAR1(H)AGON Eurofins SafetyScreen44 (BI); conditions: filed as agonist, Compound concentration 10.0 uM
[27] = biological target: cGMP-inhibited 3',5'-cyclic phosphodiesterase 3A (Homo sapiens) (UniProt Q14432); assay: PDE3A Eurofins SafetyScreen44 (BI); conditions: Compound concentration 10.0 uM
[28] = biological target: Disintegrin and metalloproteinase domain-containing protein 17 (Homo sapiens) (UniProt P78536); assay: TACE Eurofins SafetyScreen44 (BI); conditions: Compound concentration 10.0 uM
[29] = biological target: Tryptase (Homo sapiens) (UniProt Q9BZJ3+Q15661+Q9NRR2); assay: TRYPTASE_H Eurofins SafetyScreen44 (BI); format: protein assay; conditions: Compound concentration 10.0 uM
[30] = biological target: Vasopressin V1a receptor (Homo sapiens) (UniProt P37288); assay: V1A/HUM Eurofins SafetyScreen44 (BI); conditions: Compound concentration 10.0 uM
[31] = biological target: 5-hydroxytryptamine receptor 3A (Homo sapiens) (UniProt P46098); conditions: Compound concentration 10.0 uM
[32] = biological target: 5-hydroxytryptamine receptor 5A (Homo sapiens) (UniProt P47898); conditions: Compound concentration 10.0 uM
Chain of 5-hydroxytryptamine receptor 5A (Homo sapiens) (P47898 whole entry): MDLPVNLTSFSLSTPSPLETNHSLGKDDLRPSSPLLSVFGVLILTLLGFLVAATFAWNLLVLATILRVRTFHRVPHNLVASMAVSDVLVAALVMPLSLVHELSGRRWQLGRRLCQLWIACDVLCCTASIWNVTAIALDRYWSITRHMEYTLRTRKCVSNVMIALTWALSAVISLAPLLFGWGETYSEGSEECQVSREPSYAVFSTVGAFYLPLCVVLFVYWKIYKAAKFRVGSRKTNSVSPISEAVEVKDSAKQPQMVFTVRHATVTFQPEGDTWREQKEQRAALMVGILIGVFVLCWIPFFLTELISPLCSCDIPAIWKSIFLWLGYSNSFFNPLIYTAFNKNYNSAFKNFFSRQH

[33] = biological target: 5-hydroxytryptamine receptor 6 (Homo sapiens) (UniProt P50406); conditions: Compound concentration 10.0 uM
Chain of 5-hydroxytryptamine receptor 6 (Homo sapiens) (P50406 whole entry): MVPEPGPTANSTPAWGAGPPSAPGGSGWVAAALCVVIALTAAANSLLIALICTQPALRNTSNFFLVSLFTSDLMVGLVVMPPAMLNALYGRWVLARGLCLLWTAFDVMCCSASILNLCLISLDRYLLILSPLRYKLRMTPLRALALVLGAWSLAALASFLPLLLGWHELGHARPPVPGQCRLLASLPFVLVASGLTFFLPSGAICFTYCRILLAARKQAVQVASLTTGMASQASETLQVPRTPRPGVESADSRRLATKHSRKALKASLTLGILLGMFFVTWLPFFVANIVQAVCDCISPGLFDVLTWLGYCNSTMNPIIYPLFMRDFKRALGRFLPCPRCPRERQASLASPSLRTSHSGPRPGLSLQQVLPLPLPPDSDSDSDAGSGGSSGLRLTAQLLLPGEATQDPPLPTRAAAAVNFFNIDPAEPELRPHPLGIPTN

[34] = biological target: D(2) dopamine receptor (Homo sapiens) (UniProt P14416); conditions: Compound concentration 10.0 uM
[35] = biological target: Sodium-dependent serotonin transporter (Homo sapiens) (UniProt P31645); conditions: Compound concentration 10.0 uM
[36] = biological target: Delta-type opioid receptor (Homo sapiens) (UniProt P41143); conditions: Compound concentration 10.0 uM
[37] = biological target: T1, Kappa-type opioid receptor; conditions: Compound concentration 10.0 uM
[38] = biological target: Muscarinic acetylcholine receptor M3 (Homo sapiens) (UniProt P20309); conditions: Compound concentration 10.0 uM
[39] = biological target: Muscarinic acetylcholine receptor M4 (Homo sapiens) (UniProt P08173); conditions: Compound concentration 10.0 uM
[40] = biological target: Muscarinic acetylcholine receptor M5 (Homo sapiens) (UniProt P08912); conditions: Compound concentration 10.0 uM
[41] = biological target: Beta-3 adrenergic receptor (Homo sapiens) (UniProt P13945); conditions: Compound concentration 10.0 uM
[42] = biological target: GABA-A receptor; anion channel (Rattus norvegicus) (UniProt O09028+P15431+P18506+P18508+P19969+P20236+P23574+P23576+P28471+P28473+P30191+P62813+P63079+P63138+Q91ZM7+Q9ES14); conditions: Compound concentration 10.0 uM
[43] = biological target: Sigma intracellular receptor 2 (Homo sapiens) (UniProt Q5BJF2); conditions: Compound concentration 10.0 uM
Chain of Sigma intracellular receptor 2 (Homo sapiens) (Q5BJF2 whole entry): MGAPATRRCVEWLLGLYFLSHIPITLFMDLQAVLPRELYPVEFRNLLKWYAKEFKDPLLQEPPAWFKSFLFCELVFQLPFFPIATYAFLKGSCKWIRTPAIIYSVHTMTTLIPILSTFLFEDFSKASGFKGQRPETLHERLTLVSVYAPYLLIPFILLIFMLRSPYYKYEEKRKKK

T1 sequence (P41145 whole entry): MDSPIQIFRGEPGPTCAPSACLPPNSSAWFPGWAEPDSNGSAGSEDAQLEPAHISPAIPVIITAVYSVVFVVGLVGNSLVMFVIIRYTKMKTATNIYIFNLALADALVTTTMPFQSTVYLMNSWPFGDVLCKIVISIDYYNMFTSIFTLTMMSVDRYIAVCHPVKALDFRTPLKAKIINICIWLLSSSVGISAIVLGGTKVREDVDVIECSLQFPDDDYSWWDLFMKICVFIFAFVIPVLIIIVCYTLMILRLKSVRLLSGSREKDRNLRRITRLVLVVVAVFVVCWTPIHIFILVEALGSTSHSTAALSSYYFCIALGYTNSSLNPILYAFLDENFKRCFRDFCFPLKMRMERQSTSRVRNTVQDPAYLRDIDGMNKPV

Ki ([1]; read-out: Ki): 4.95 µM
Ki ([1]; read-out: pKi (converted)): 4.79 µM
inhibition [31]: 0.31%
inhibition [32]: 5.71%
inhibition [33]: 12.2%
inhibition [34]: 0.91%
inhibition [35]: 4.96%
inhibition [36]: 9.83%
inhibition [37]: 95.9%
inhibition [38]: 23.8%
inhibition [39]: 9.09%
inhibition [40]: 8.73%
inhibition [41]: -6.54%
inhibition [42]: 3.5%
inhibition [43]: -9.5%
SMILES: CC[C@H](CC(=O)O)n1c(=O)c2ncccc2n(Cc2cn(C)c3cc(C)cc(C)c23)c1=O [BI-1942]
residual activity [2]: 86%
residual activity [3]: 101%
residual activity [4]: 102%
residual activity [5]: 79%
residual activity [6]: 87%
residual activity [7]: 99%
residual activity [8]: 90%
residual activity [9]: 106%
residual activity [10]: 93%
activity at 10 µM [11]: 108% (not active)
residual activity [12]: 97%
residual activity [13]: 99%
residual activity [14]: 118%
residual activity [15]: 92%
residual activity [16]: 109%
residual activity [17]: 98%
residual activity [18]: 95%
residual activity [19]: 112%
activity at 10 µM [20]: 86% (not active)
residual activity [21]: 109%
residual activity [22]: 103%
residual activity [23]: 134%
residual activity [24]: 102%
residual activity [25]: 103%
residual activity [26]: 100%
residual activity [27]: 94%
residual activity [28]: 88%
residual activity [29]: 102%
residual activity [30]: 101%

From ChEMBL document CHEMBL4800723, “Data for DCP probe BI-1942” (2021)
